The values that follow come from patent US9822099B2, “Triazole derivatives” (priority 2013, dated 2017).

Like-named read-outs stand apart in the source and are kept apart here. Marks after values point to notes of the source that are not given here.

One series deals with Uromyces appendiculatus. The experiment in a line: Example F: in vivo preventive test on Uromyces appendiculatus (bean rust). Particulars: bean plants, preventive spray, evaluated 11 days after inoculation. The procedure: The young plants of bean are treated by spraying the active ingredient prepared as described above. Control plants are treated only with an aqueous solution of acetone/Dimethyl sulfoxide/Tween®. After 24 hours, the plants are contaminated by spraying the leaves with an aqueous suspension of Uromyces appendiculatus spores.

A further series relates to Pyrenophora teres. The experiment in a line: Example C: in vivo preventive test on Pyrenophora teres (net blotch on barley). Particulars: barley plants, preventive spray, evaluated 14 days after inoculation. As to the method: The young plants of barley are treated by spraying the active ingredient prepared as described above. Control plants are treated only with an aqueous solution of acetone/Dimethyl sulfoxide/Tween®. After 24 hours, the plants are contaminated by spraying the leaves with an aqueous suspension of Pyrenophora teres spores.

In a further series the test system is Venturia inaequalis. Briefly: Example O: Venturia test (apples)/preventive. The class given is in vivo. Particulars: 100 ppm of active ingredient, preventive, evaluated 10 days after inoculation. As to the method:
Solvent: 24.5 parts by weight of acetone • 24.5 parts by weight of dimethylacetamide Emulsifier: 1 part by weight of alkylaryl polyglycol ether To produce a suitable preparation of active compound, 1 part by weight of active compound is mixed with the stated amounts of solvent and emulsifier, and the concentrate is diluted with water to the desired concentration. To test for preventive activity, young plants are sprayed with the preparation of active compound at the stated rate of application.

Another series deals with Leptosphaeria nodorum. The experiment in a line: Example K: Leptosphaeria nodorum test (wheat)/preventive. The class given is in vivo. Particulars: 500 ppm of active ingredient, preventive, evaluated 8 days after inoculation. Summed up: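 Young wheat plants sprayed preventively with compound in N,N-dimethylacetamide/alkylaryl polyglycol ether emulsifier diluted with water at the stated application rate. Once the coating dried, plants were inoculated with a Leptosphaeria nodorum spore suspension.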

For a further series, the system named is Botrytis cinerea. The experiment in a line: Example A: in vivo preventive test on Botrytis cinerea (grey mould). Particulars: gherkin plants, preventive spray, evaluated 4 to 5 days after inoculation. The procedure:
The young plants of gherkin are treated by spraying the active ingredient prepared as described above. Control plants are treated only with an aqueous solution of acetone/Dimethyl sulfoxide/Tween®. After 24 hours, the plants are contaminated by spraying the leaves with an aqueous suspension of Botrytis cinerea spores.

A further series deals with Septoria tritici. The experiment in a line: Example D: in vivo preventive test on Septoria tritici (leaf spot on wheat). Particulars: wheat plants, preventive spray, evaluated 24 days after inoculation. As to the method: The young plants of wheat are treated by spraying the active ingredient prepared as described above. Control plants are treated only with an aqueous solution of acetone/Dimethyl sulfoxide/Tween®. After 24 hours, the plants are contaminated by spraying the leaves with an aqueous suspension of Septoria tritici spores.

The test system of the next series is Sphaerotheca fuliginea. The experiment in a line: Example E: in vivo preventive test on Sphaerotheca fuliginea (powdery mildew on cucurbits). Particulars: gherkin plants, preventive spray, evaluated 15 days after inoculation. As to the method:
The young plants of gherkin are treated by spraying the active ingredient prepared as described above. Control plants are treated only with an aqueous solution of acetone/Dimethyl sulfoxide/Tween®. After 24 hours, the plants are contaminated by spraying the leaves with an aqueous suspension of Sphaerotheca fuliginea spores.

A further series deals with Fusarium culmorum. The experiment in a line: Example H: Fusarium culmorum-test (wheat)/curative. Particulars: 500 ppm of active ingredient, curative, evaluated 5 days after inoculation. It counts as in vivo. The procedure:
Solvent: 49 parts by weight of N,N-dimethylacetamide
Emulsifier: 1 part by weight of alkylaryl polyglycol ether
To produce a suitable preparation of active compound, 1 part by weight of active compound or active compound combination is mixed with the stated amounts of solvent and emulsifier, and the concentrate is diluted with water to the desired concentration.
To test for curative activity, young plants are slightly injured by using a sandblast and afterwards they are sprayed with a conidia suspension of Fusarium culmorum and placed for 24 hours in a greenhouse under a translucent incubation cabinet at a temperature of approximately 22° C. and a relative atmospheric humidity of approximately 100% and are subsequently sprayed with the preparation of active compound at the stated rate of application.
After the spray coating has been dried, the plants remain in the greenhouse under translucent incubation cloches at a temperature of approximately 22° C. and a relative atmospheric humidity of approximately 100%.
The test is evaluated 5 days after the inoculation. 0% means an efficacy which corresponds to that of the untreated control, while an efficacy of 100% means that no disease is observed.

For a further series, the system named is Phakopsora pachyrhizi. Briefly: Example L: Phakopsora test (soybeans)/preventive. The class given is in vivo. Particulars: 100 ppm of active ingredient, preventive, evaluated 7 days after inoculation.
The test system of series [1] is Blumeria graminis f. sp. hordei. The experiment in a line: Example G: Blumeria test (barley)/preventive. To be noted: 500 ppm of active ingredient, preventive, evaluated 7 days after inoculation. The class given is in vivo. The method in brief:
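Active compound formulated in N,N-dimethylacetamide with alkylaryl polyglycol ether emulsifier, diluted in water, and sprayed onto young barley plants at the stated application rate. Once the coating dried, plants were dusted with Blumeria graminis f. sp. hordei spores as a preventive test.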

Series [2] concerns Fusarium nivale (var. majus). Briefly: Example J: Fusarium nivale (var. majus)-test (wheat)/preventive. The class given is in vivo. Particulars: 500 ppm of active ingredient, preventive, evaluated 5 days after inoculation. Summed up:
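Young wheat plants sprayed preventively with active compound (DMA/emulsifier concentrate diluted in water) at the stated rate, then sandblast-wounded and inoculated with conidia. Held in greenhouse at ~10 °C, ~100% RH. Efficacy scored 5 days post-inoculation: 0% = untreated control, 100% = no disease.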

A further series concerns Fusarium graminearum. The class given is in vivo. To be noted: 500 ppm of active ingredient; barley, preventive; evaluated 5 days after inoculation.
A further series relates to Puccinia recondita. The experiment in a line: Example B: in vivo preventive test on Puccinia recondita (brown rust on wheat). Particulars: wheat plants, preventive spray, evaluated 11 days after inoculation. As to the method: The young plants of wheat are treated by spraying the active ingredient prepared as described above. Control plants are treated only with an aqueous solution of acetone/Dimethyl sulfoxide/Tween®. After 24 hours, the plants are contaminated by spraying the leaves with an aqueous suspension of Puccinia recondita spores.

Another series deals with Pyricularia oryzae. The class given is in vivo. Particulars: 500 ppm of active ingredient; rice, preventive; evaluated 8 days after inoculation.

Regarding `OC(Cc1c(Cl)cncc1Cl)(Cn1cncn1)C1(F)CC1` (racemic) [Example I-62], the Eff. % in the series with Uromyces appendiculatus (500 ppm of active ingredient), with Pyrenophora teres (500 ppm of active ingredient), in the series on Venturia inaequalis, with Leptosphaeria nodorum, with Botrytis cinerea (500 ppm of active ingredient) and in the series with Septoria tritici (500 ppm of active ingredient) was 100% each time. For the same compound, the Eff. % in the series on Sphaerotheca fuliginea (500 ppm of active ingredient) worked out at 100%; with Fusarium culmorum it was 83%; in the series with Phakopsora pachyrhizi, 99%; in [1], 100%; in [2], 100%; with Fusarium graminearum, 100%. In addition, the Eff. % in the series with Puccinia recondita (500 ppm of active ingredient) amounted to 98%. For the same compound, the LogP (pH 2.7) was 1.86^[a].
Turning to `OC(Cc1cccnc1F)(Cn1cncn1)C1(Cl)CC1` (stereo not drawn) [Example I-51], the Eff. % turned out to be 86% in the series on Uromyces appendiculatus (500 ppm of active ingredient); 100% with Pyrenophora teres (500 ppm of active ingredient); 94% in the series with Venturia inaequalis; 100% in the series on Leptosphaeria nodorum; 80% with Pyricularia oryzae; 100% with Botrytis cinerea (500 ppm of active ingredient). The Eff. % (in the series on Septoria tritici (500 ppm of active ingredient); with Sphaerotheca fuliginea (500 ppm of active ingredient); with Fusarium culmorum; in the series on Phakopsora pachyrhizi; in series [1]; in [2]) was 100% each time. Also, the Eff. % in the series with Fusarium graminearum amounted to 100%; with Puccinia recondita (500 ppm of active ingredient), 98%. The LogP (pH 2.7) is 1.64^[a].
With `OC(Cc1ccc(Cl)nc1Cl)(Cn1cncn1)C1(Cl)CC1` (stereo not drawn) [Example I-53], the Eff. % in the series with Uromyces appendiculatus (500 ppm of active ingredient) is given as 98%; in the series on Pyrenophora teres (500 ppm of active ingredient), 86%; in the series on Venturia inaequalis, 97%; with Leptosphaeria nodorum, 100%; in the series on Pyricularia oryzae, 80%; with Botrytis cinerea (500 ppm of active ingredient), 100%. Further, the Eff. % in the series on Septoria tritici (500 ppm of active ingredient) is listed as 100%; in the series with Sphaerotheca fuliginea (500 ppm of active ingredient) it was 100%; in the series with Fusarium culmorum it was 90%; in the series with Phakopsora pachyrhizi, 93%; in series [1] it was 100%; in series [2], 100%. The results for the Eff. % in the series on Fusarium graminearum and in the series with Puccinia recondita (500 ppm of active ingredient) were 100% and 94%, respectively. The LogP (pH 2.7) is 2.55^[a].
For `CC(CF)(CF)C(O)(Cc1ccncc1Cl)Cn1cncn1` (stereo not drawn) [Example I-6], the Eff. % came out at 100% with Uromyces appendiculatus (100 ppm of active ingredient); 100% in the series on Venturia inaequalis; 100% in the series with Leptosphaeria nodorum; 83% in the series with Pyricularia oryzae; 76% in the series with Botrytis cinerea (100 ppm of active ingredient); 100% in the series on Septoria tritici (100 ppm of active ingredient). Further, the Eff. % is listed as 100% with Sphaerotheca fuliginea (100 ppm of active ingredient); 100% with Fusarium culmorum; 95% in the series with Phakopsora pachyrhizi; 100% in series [1]; 100% in series [2]; 100% in the series with Fusarium graminearum. Moreover, the Eff. % in the series with Puccinia recondita (100 ppm of active ingredient) stood at 81%. Moreover, for the setting “pH 2.7”, the LogP was 1.54^[a].
Consider `OC(Cc1ccnc(Cl)c1F)(Cn1cncn1)C1(Cl)CC1` (stereo not drawn) [Example I-60], for which the Eff. % is listed as 100% in the series on Uromyces appendiculatus (500 ppm of active ingredient); 100% in the series on Pyrenophora teres (500 ppm of active ingredient); 100% in the series with Venturia inaequalis; 100% in the series on Leptosphaeria nodorum; 100% in the series with Botrytis cinerea (500 ppm of active ingredient); 97% with Septoria tritici (500 ppm of active ingredient). Further, the Eff. % with Sphaerotheca fuliginea (500 ppm of active ingredient) came out at 100%; in the series on Fusarium culmorum, 83%; in the series on Phakopsora pachyrhizi, 100%; in [1] it was 100%; in series [2], 100%; in the series with Fusarium graminearum, 100%. The same compound returned an Eff. % with Puccinia recondita (500 ppm of active ingredient) of 98%. Moreover, under “pH 2.7”, the LogP is 2.02^[a].
For the compound `CC1(C(O)(Cc2ccncc2Cl)Cn2cncn2)CC1` (stereo not drawn) [Example I-49], the Eff. % with Uromyces appendiculatus (500 ppm of active ingredient) came out at 81%; in the series on Pyrenophora teres (500 ppm of active ingredient), 93%; with Venturia inaequalis, 100%; in the series on Leptosphaeria nodorum it was 100%; with Botrytis cinerea (500 ppm of active ingredient), 99%; with Septoria tritici (500 ppm of active ingredient) it was 100%. In addition, the Eff. % was 100% in the series on Sphaerotheca fuliginea (500 ppm of active ingredient); 100% in the series with Fusarium culmorum; 96% in the series on Phakopsora pachyrhizi; 100% in series [1]; 100% in series [2]; 100% with Fusarium graminearum. The compound further gave an Eff. % in the series with Puccinia recondita (500 ppm of active ingredient) of 100%. Moreover, the LogP (pH 2.7) was 1.57^[a].
For `OC(Cc1cccnc1Cl)(Cn1cncn1)C1(F)CC1` (stereo not drawn) [Example I-25], the Eff. % is on record as 100% in the series with Uromyces appendiculatus (100 ppm of active ingredient); 97% with Pyrenophora teres (100 ppm of active ingredient); 89% in the series with Venturia inaequalis; 100% with Leptosphaeria nodorum; 99% in the series with Botrytis cinerea (100 ppm of active ingredient); 100% in the series on Septoria tritici (100 ppm of active ingredient). Further, the Eff. % came out at 100% with Sphaerotheca fuliginea (100 ppm of active ingredient); 100% with Fusarium culmorum; 99% in the series on Phakopsora pachyrhizi; 100% in series [1]; 100% in series [2]; 100% with Fusarium graminearum. This compound also came in with an Eff. % in the series on Puccinia recondita (100 ppm of active ingredient) of 100%. For the same compound, the LogP (pH 2.7) was 1.42^[a].
Consider `CC1(C(O)(Cc2cccnc2Cl)Cn2cncn2)CC1` (stereo not drawn) [Example I-8], for which the Eff. % in the series with Uromyces appendiculatus (100 ppm of active ingredient) stood at 100%; in the series with Venturia inaequalis, 100%; in the series on Leptosphaeria nodorum, 92%; in the series on Pyricularia oryzae, 100%; in the series on Botrytis cinerea (100 ppm of active ingredient), 87%; with Septoria tritici (100 ppm of active ingredient), 94%. The Eff. % is listed as 100% in the series on Sphaerotheca fuliginea (100 ppm of active ingredient); 100% with Fusarium culmorum; 95% in the series with Phakopsora pachyrhizi; 100% in [1]; 100% in [2]; 100% with Fusarium graminearum. In the series on Puccinia recondita (100 ppm of active ingredient), this compound yielded an Eff. % of 94%. Also, where the note is “method [a]: LC-MS at pH 2.7, 0.1% formic acid in water / acetonitrile gradient”, the LogP is 1.73^[a].
